The values below come from the supplement of paper PMC11061612.

Assay [1] deals with HCC-44 (Lung Adenocarcinoma). Kind of assay: combination Emax (second highest fraction inhibited in the dose matrix, 72 h); higher = more inhibition; extreme values may be limits of the assay. In short, it runs like this:
(§1)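 Bliss excess equals the observed combination effect minus the expected value EA + EB − EA·EB, where EA and EB are the effects of each agent alone. Combination Emax is the second-highest inhibition within the matrix. Inhibition was scaled from CellTiter-Glo 2.0 luminescence, with 0 set by vehicle wells and 1 by blank wells, after 72 hours of two-drug dosing of cells plated in 1536-well plates.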

Assay [2] relates to OVTOKO (Ovarian Carcinoma). As to the kind of experiment: Bliss excess, mean over the matrix (fraction); higher = more synergy. The method in brief:
as §1

Assay [3] has as its system LAMA-84 (Chronic Myelogenous Leukemia). Described as above. In short, it runs like this: as §1
Assay [4] concerns HCC-44 (Lung Adenocarcinoma). The assay is described as above. In short, it runs like this:
as §1

Assay [5] relates to AsPC-1 (Pancreatic Carcinoma). The description is as above. The method in brief:
as §1

For assay [6], the system named is Becker (Low Grade Glioma). Described as above. In short, it runs like this: as §1

For `COc1nnc2ccc(N3CCC(c4ccc(OCCN5CCN(C)C(=O)[C@H]5C)cc4)CC3)nn12` [AZD5153] + Cc1c2c(nn1C)CSCc1cc(n(C)n1)CSc1cc(c3ccccc3c1)OCCCc1c(C(=O)O)n(C)c3c-2c(Cl)ccc13 [AZD5991] (first compound max 1 µM, 7x7, partner max 1 µM), the “combination Emax” value in assay [1] turned out to be 0.756. Moreover, the Bliss excess in assay [2] was -0.0536; in assay [3], 0.005; in assay [4] it was -0.0332; in assay [5], -0.0639; in assay [6], -0.0815.
In the case of `COc1nnc2ccc(N3CCC(c4ccc(OCCN5CCN(C)C(=O)[C@H]5C)cc4)CC3)nn12` [AZD5153] + C=CCn1c(=O)c2cnc(Nc3ccc(N4CCN(C)CC4)cc3)nc2n1-c1cccc(C(C)(C)O)n1 [AZD1775] (first compound max 1 µM, partner max 1 µM), the “combination Emax” value in assay [1] was 0.63. In addition, the Bliss excess is 0.0095 in assay [2]; -0.0311 in assay [3]; -0.0787 in assay [4]; 0.0167 in assay [5]; -0.0421 in assay [6].
Consider `NC1(C(=O)N[C@@H](CCO)c2ccc(Cl)cc2)CCN(c2ncnc3[nH]ccc23)CC1` [Capivasertib] + CCN(CCO)CCCOc1ccc2c(Nc3cc(CC(=O)Nc4cccc(F)c4)[nH]n3)ncnc2c1 [AZD2811] (first compound max 10 µM, 7x7, partner max 1 µM), for which the “combination Emax” value in assay [1] was 0.663. Besides, the Bliss excess in assay [2] is -0.0109; in assay [3] it was 0.0341; in assay [4], -0.0388; in assay [5], -0.0655; in assay [6], -0.0136.
On to `Cc1nc(Nc2ncc(C(=O)Nc3c(C)cccc3Cl)s2)cc(N2CCN(CCO)CC2)n1` [Dasatinib] + CC(=O)Nc1cccc(-n2c(=O)n(C3CC3)c(=O)c3c(Nc4ccc(I)cc4F)n(C)c(=O)c(C)c32)c1 [Trametinib] (first compound max 2 µM, 7x7, partner max 1 µM), for which the “combination Emax” value in assay [1] came to 0.955. In addition, the Bliss excess in assay [2] is -0.139; in assay [3], 0.0037; in assay [4], 0.0359; in assay [5] it was 0.0506; in assay [6] it was 0.0234.
As to `Cn1cnc2c(F)c(Nc3ccc(Br)cc3Cl)c(C(=O)NOCCO)cc21` [Selumetinib] + CCN(CCO)CCCOc1ccc2c(Nc3cc(CC(=O)Nc4cccc(F)c4)[nH]n3)ncnc2c1 [AZD2811] (first compound max 10 µM, 7x7, partner max 1 µM), the “combination Emax” value in assay [1] came to 0.528. The Bliss excess in assay [2] is -0.0303; in assay [3], 0.0237; in assay [4], 0.0067; in assay [5] it was 0.0032; in assay [6], -0.0119.
As for `CC(=O)c1c(C)c2cnc(Nc3ccc(N4CCNCC4)cn3)nc2n(C2CCCC2)c1=O` [Palbociclib] + Cc1c2c(nn1C)CSCc1cc(n(C)n1)CSc1cc(c3ccccc3c1)OCCCc1c(C(=O)O)n(C)c3c-2c(Cl)ccc13 [AZD5991] (first compound max 10 µM, 7x7, partner max 1 µM), the “combination Emax” value in assay [1] came out at 0.169. Further, the Bliss excess in assay [2] is -0.0315; in assay [3], 0.0056; in assay [4] it was -0.0224; in assay [5] it was -0.0859; in assay [6], 0.0059.
Turning to `C[C@@H](c1ccc2nccn2c1)n1nnc2ncc(-c3cnn(C)c3)nc21` [Savolitinib] + Cc1c2c(nn1C)CSCc1cc(n(C)n1)CSc1cc(c3ccccc3c1)OCCCc1c(C(=O)O)n(C)c3c-2c(Cl)ccc13 [AZD5991] (first compound max 1 µM, 7x7, partner max 1 µM), the “combination Emax” value in assay [1] worked out at 0.0929. Moreover, the Bliss excess in assay [2] was -0.0743; in assay [3], 0.0136; in assay [4], -0.0335; in assay [5], -0.118; in assay [6], 0.0103.
In the case of `CS(=O)(=O)CCNCc1ccc(-c2ccc3ncnc(Nc4ccc(OCc5cccc(F)c5)c(Cl)c4)c3c2)o1` [Lapatinib] + C[C@@H](Oc1cc(-c2cnn(C3CCNCC3)c2)cnc1N)c1c(Cl)ccc(F)c1Cl [Crizotinib] (first compound max 10 µM, 7x7, partner max 10 µM), the “combination Emax” value in assay [1] was determined as 0.939. The Bliss excess in assay [2] is -0.0437; in assay [3], 0.001; in assay [4], -0.0384; in assay [5], -0.031; in assay [6] it was -0.0387.
As for `NC1(C(=O)N[C@@H](CCO)c2ccc(Cl)cc2)CCN(c2ncnc3[nH]ccc23)CC1` [Capivasertib] + CC(=O)c1c(C)c2cnc(Nc3ccc(N4CCNCC4)cn3)nc2n(C2CCCC2)c1=O [Palbociclib] (first compound max 10 µM, 7x7, partner max 10 µM), the “combination Emax” value in assay [1] is 0.641. Also, the Bliss excess was -0.0688 in assay [2]; 0.0059 in assay [3]; -0.0161 in assay [4]; -0.025 in assay [5]; 0.0816 in assay [6].
`C=CCn1c(=O)c2cnc(Nc3ccc(N4CCN(C)CC4)cc3)nc2n1-c1cccc(C(C)(C)O)n1` [AZD1775] + C1CN(CCC1(C(=O)N[C@@H](CCO)C2=CC=C(C=C2)Cl)N)C3=NC=NC4=C3C=CN4 [Capivasertib] (first compound max 3 µM, partner max 3 µM): the “combination Emax” value in assay [1] was found to be 0.844. Also, the Bliss excess in assay [2] was -0.0135; in assay [3], 0.0017; in assay [4], -0.0109; in assay [5], -0.0654; in assay [6] it was -0.0716.
As for `Cn1cnc2c(F)c(Nc3ccc(Br)cc3Cl)c(C(=O)NOCCO)cc21` [Selumetinib] + C=CCn1c(=O)c2cnc(Nc3ccc(N4CCN(C)CC4)cc3)nc2n1-c1cccc(C(C)(C)O)n1 [AZD1775] (first compound max 10 µM, partner max 1 µM), in assay [1], the “combination Emax” value is 0.64. Further, the Bliss excess in assay [2] is -0.114; in assay [3], -0.0385; in assay [4] it was -0.0088; in assay [5] it was -0.046; in assay [6] it was 0.0145.
